pIC50: −log10 of the molar value.
Each compound was assayed against T1, OTR (Homo sapiens, UniProt P30559) (assay: Ca2+ mobilization in cells stably expressing OTR (FLIPR, antagonist mode)). Conditions: OTR/HEK293 stably transfected cell line.
T1 construct: expressed in transfected cells; host or cells: OTR/HEK293 stably transfected cell line
T1 sequence (P30559 1-389): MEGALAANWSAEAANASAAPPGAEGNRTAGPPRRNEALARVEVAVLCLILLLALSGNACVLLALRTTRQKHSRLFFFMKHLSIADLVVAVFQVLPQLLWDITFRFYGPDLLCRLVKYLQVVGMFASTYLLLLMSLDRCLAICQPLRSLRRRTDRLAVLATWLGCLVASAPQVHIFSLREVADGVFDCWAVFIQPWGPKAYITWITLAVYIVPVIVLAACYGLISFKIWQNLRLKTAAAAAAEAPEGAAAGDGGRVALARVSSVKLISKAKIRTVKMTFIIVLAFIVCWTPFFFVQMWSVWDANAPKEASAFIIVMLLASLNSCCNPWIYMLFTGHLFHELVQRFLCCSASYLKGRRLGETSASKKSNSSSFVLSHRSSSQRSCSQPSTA
Format: cell-based
Procedure, shortened: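 OTR/HEK293 stable cells (20,000 per well) were loaded with Fluo-4 Direct plus probenecid. Cells were pre-exposed to 10-point, 3-fold compound dilutions before agonist challenge at EC80, determined beforehand per cell line. FLIPR calcium fluorescence (Max-Min) was fitted in Prism.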
In the case of `CON=C1C[C@@H](CO)N(C(=O)c2ccc3c(c2)COCc2c(C#N)cccc2-3)C1` (single isomer, unassigned) [Example C0142, (Z/E)-9-(2-(Hydroxymethyl)-4-(methoxyimino)pyrrolidine-1-carbonyl)-5,7-dihydrodibenzo[c,e]oxepine-4-carbonitrile], the pIC50 was 5.53.
`CO/N=C1/C[C@@H](CO)N(C(=O)c2ccc(-c3cccc(C)c3C)c(C(F)(F)F)n2)C1` [Example C0085, (S, Z)-(5-(2,3-Dimethylphenyl)-6-(trifluoromethyl)pyridin-2-yl)(2-(hydroxymethyl)-4-(methoxyimino)pyrrolidin-1-yl)methanone] was tested, and the pIC50 was 6.79.
`CO/N=C1/C[C@@H](CO)N(C(=O)c2ccc(-c3cc(F)cc(C#N)c3C)c3c2OCO3)C1` [Example C0144, (S,Z)-5-Fluoro-3-(7-(2-(hydroxymethyl)-4-(methoxyimino)pyrrolidine-1-carbonyl)benzo[d][1,3]dioxol-4-yl)-2-methylbenzonitrile] showed a pIC50 of 7.22.
With `CO/N=C1\C[C@@H](CO)N(C(=O)c2ccc(-c3cccc(C#N)c3C)c(OC)n2)C1` [Example A0222, 3-(6-[(2S, 4E)-2-(Hydroxymethyl)-4-(methoxyimino)pyrrolidine-1-carbonyl]-2-methoxypyridin-3-yl)-2-methylbenzonitrile] the pIC50 was 6.95.
`CO/N=C1/C[C@@H](CO)N(C(=O)c2ccc(-c3cccc(C#N)c3C)c(OCC3CC3)n2)C1` [Example A0188, (S, Z)-3-(2-(Cyclopropylmethoxy)-6-(2-(hydroxymethyl)-4-(methoxyimino)pyrrolidine-1-carbonyl)pyridin-3-yl)-2-methylbenzonitrile] gave a pIC50 of 7.36.
Compound `CON=C1CN(C(=O)c2ccc(-c3ccccc3C)cc2)C2COCCN12` (mixture of isomers) [Example C0033, (EZ)-(3-(Methoxyimino)hexahydro-1H-imidazo[2,1-c][1,4]oxazin-1-yl)(2′-methyl-[1, 1′-biphenyl]-4-yl)methanone] has a pIC50 of 5.72.
`CO/N=C1/C[C@@H](CO)N(C(=O)c2ncc(-c3cccc(C)c3C)c(C(F)(F)F)n2)C1` [Example C0087, (S, Z)-(5-(2,3-Dimethylphenyl)-4-(trifluoromethyl)pyrimidin-2-yl)(2-(hydroxymethyl)-4-(methoxyimino)pyrrolidin-1-yl)methanone] was tested, and the pIC50 was 6.75.
In the case of `CO/N=C1/C[C@@H](CO)N(C(=O)c2ccc(-c3cccc(C)c3C)c(OC3COC3)c2)C1` [Example A0147, (S, Z)-(2′, 3′-Dimethyl-2-(oxetan-3-yloxy)-[1, 1′-biphenyl]-4-yl)(2-(hydroxymethyl)-4-(methoxyimino)pyrrolidin-1-yl)methanone], the pIC50 was 7.63.
`CO/N=C1/CC[C@@H](CO)N(C(=O)c2ccc(-c3cccc(C#N)c3C)cc2)C1` [Example A0225, (S, Z)-4′-(2-(Hydroxymethyl)-5-(methoxyimino)piperidine-1-carbonyl)-2-methyl-[1,1′-biphenyl]-3-carbonitrile] was tested, and the pIC50 was 6.32.
In the case of `CO/N=C1/C[C@@H](CO)N(C(=O)c2ccc(-c3ccnc(C#N)c3C)cc2)C1` [Example C0091, (S, Z)-4-(4-(2-(Hydroxymethyl)-4-(methoxyimino)pyrrolidine-1-carbonyl)phenyl)-3-methylpicolinonitrile], the pIC50 was 6.55.

Reference: patent publication US20260248763A1 (BIO GENUINE (SHANGHAI) BIOTECH CO., LTD, priority 2023, published 2026)
